Source: ChEMBL document CHEMBL1157845, “Structure-activity relationship of new anti-tuberculosis agents derived from oxazoline and oxazole benzyl esters” (Eur J Med Chem, 2010)
Values after ≈ are worked out from the molar mass of the structure shown. Active and inactive are the calls of the source. Unless noted, the rule behind the calls is not given here.

system: Mus musculus; test: Toxicity in mouse assessed as behavioral change at 100 mg/kg, po qd for 5 days followed by 2 days rest and 200 mg/kg, po qd for 5 days; type: organism-based; conditions: in vivo

Row | Structure (SMILES) | Activity
1 | O=C(OCc1ccccc1)[C@@H]1COC(c2ccccc2OCc2ccccc2)=N1 | Non-toxic
2 | O=C(OCc1ccccc1)[C@@H]1COC(c2ccccc2)=N1 | Non-toxic
3 | O=C(OCc1ccccc1)[C@@H]1COC(c2ccc(F)c([N+](=O)[O-])c2)=N1 | Non-toxic

system: Mycobacterium avium; test: Antimycobacterial activity against Mycobacterium avium MAC 101; type: functional, organism-based; conditions: not given

Row | Structure (SMILES) | Activity
4 | O=C(OCc1ccccc1)[C@@H]1COC(c2ccccc2)=N1 | inactive
5 | O=C(OCc1ccccc1)[C@@H]1COC(c2ccc(F)c([N+](=O)[O-])c2)=N1 | inactive

system: Bacillus subtilis; test: Antibacterial activity against Bacillus subtilis ATCC 6633; type: functional, organism-based; conditions: not given

Row | Structure (SMILES) | Activity
6 | O=C(OCc1ccccc1)[C@@H]1COC(c2ccccc2)=N1 | inactive
7 | O=C(OCc1ccccc1)[C@@H]1COC(c2ccc(F)c([N+](=O)[O-])c2)=N1 | inactive

system: Micrococcus luteus; test: Antibacterial activity against Micrococcus luteus ATCC 10240; type: functional, organism-based; conditions: not given

Row | Structure (SMILES) | Activity
8 | O=C(OCc1ccccc1)[C@@H]1COC(c2ccccc2)=N1 | inactive
9 | O=C(OCc1ccccc1)[C@@H]1COC(c2ccc(F)c([N+](=O)[O-])c2)=N1 | inactive

system: Vero; test: Cytotoxicity against african green monkey Vero cells by colorimetric assay; type: cell-based; conditions: Chlorocebus sabaeus

Row | Structure (SMILES) | IC50 [µM]
10 | O=C(OCc1ccccc1)[C@@H]1COC(c2ccccc2OCc2ccccc2)=N1 | > 128
11 | O=C(OCc1ccccc1)[C@@H]1COC(c2ccccc2)=N1 | > 128
12 | O=C(OCc1ccccc1)[C@@H]1COC(c2ccc(F)c([N+](=O)[O-])c2)=N1 | > 128

system: Escherichia coli; test: Antibacterial activity against Escherichia coli SG 458; type: functional, organism-based; conditions: not given

Row | Structure (SMILES) | Activity
13 | O=C(OCc1ccccc1)[C@@H]1COC(c2ccccc2)=N1 | inactive
14 | O=C(OCc1ccccc1)[C@@H]1COC(c2ccc(F)c([N+](=O)[O-])c2)=N1 | inactive

system: Staphylococcus aureus; test: Antibacterial activity against Staphylococcus aureus SG 511; type: functional, organism-based; conditions: not given

Row | Structure (SMILES) | Activity
15 | O=C(OCc1ccccc1)[C@@H]1COC(c2ccccc2)=N1 | inactive
16 | O=C(OCc1ccccc1)[C@@H]1COC(c2ccc(F)c([N+](=O)[O-])c2)=N1 | inactive

system: Mus musculus; test: Toxicity in mouse assessed as change in gross appearance at 100 mg/kg, po qd for 5 days followed by 2 days rest and 200 mg/kg, po qd for 5 days; type: organism-based; conditions: in vivo

Row | Structure (SMILES) | Activity
17 | O=C(OCc1ccccc1)[C@@H]1COC(c2ccccc2OCc2ccccc2)=N1 | Non-toxic
18 | O=C(OCc1ccccc1)[C@@H]1COC(c2ccccc2)=N1 | Non-toxic
19 | O=C(OCc1ccccc1)[C@@H]1COC(c2ccc(F)c([N+](=O)[O-])c2)=N1 | Non-toxic

system: Mycolicibacterium aurum; test: Antimycobacterial activity against Mycobacterium aurum SB 66; type: functional, organism-based; conditions: not given

Row | Structure (SMILES) | Activity
20 | O=C(OCc1ccccc1)[C@@H]1COC(c2ccccc2)=N1 | inactive
21 | O=C(OCc1ccccc1)[C@@H]1COC(c2ccc(F)c([N+](=O)[O-])c2)=N1 | inactive

system: Mycobacterium avium; test: Antimycobacterial activity against Mycobacterium avium MAC 108; type: functional, organism-based; conditions: not given

Row | Structure (SMILES) | Activity
22 | O=C(OCc1ccccc1)[C@@H]1COC(c2ccccc2)=N1 | inactive
23 | O=C(OCc1ccccc1)[C@@H]1COC(c2ccc(F)c([N+](=O)[O-])c2)=N1 | inactive

system: Mycobacterium tuberculosis; test: Antimycobacterial activity against Mycobacterium tuberculosis H37Rv ATCC 27294 in GAS medium after 1 week by microplate alamar blue assay; type: functional; conditions: H37Rv ATCC 27294, 168 h

Row | Structure (SMILES) | MIC [µM]
24 | O=C(OCc1ccccc1)[C@@H]1COC(c2ccccc2OCc2ccccc2)=N1 | 12.6 (≈ 4.88 µg/mL)
25 | O=C(OCc1ccccc1)[C@@H]1COC(c2ccccc2)=N1 | 7.2 (≈ 2.03 µg/mL)
26 | O=C(OCc1ccccc1)[C@@H]1COC(c2ccc(F)c([N+](=O)[O-])c2)=N1 | 6.24 (≈ 2.15 µg/mL)

system: Mycolicibacterium vaccae; test: Antimycobacterial activity against Mycobacterium vaccae 10670; type: functional, organism-based; conditions: not given

Row | Structure (SMILES) | Activity
27 | O=C(OCc1ccccc1)[C@@H]1COC(c2ccccc2)=N1 | inactive
28 | O=C(OCc1ccccc1)[C@@H]1COC(c2ccc(F)c([N+](=O)[O-])c2)=N1 | inactive

system: Mycobacterium avium; test: Antimycobacterial activity against Mycobacterium avium MAC 100; type: functional, organism-based; conditions: not given

Row | Structure (SMILES) | Activity
29 | O=C(OCc1ccccc1)[C@@H]1COC(c2ccccc2)=N1 | inactive
30 | O=C(OCc1ccccc1)[C@@H]1COC(c2ccc(F)c([N+](=O)[O-])c2)=N1 | inactive

system: Colletotrichum; test: Antifungal activity against Glomerella; type: functional, organism-based; conditions: not given

Row | Structure (SMILES) | Activity
31 | O=C(OCc1ccccc1)[C@@H]1COC(c2ccccc2)=N1 | inactive
32 | O=C(OCc1ccccc1)[C@@H]1COC(c2ccc(F)c([N+](=O)[O-])c2)=N1 | inactive

system: Mycolicibacterium aurum; test: Antimycobacterial activity against Mycobacterium aurum DSM 43536; type: functional, organism-based; conditions: not given

Row | Structure (SMILES) | Activity
33 | O=C(OCc1ccccc1)[C@@H]1COC(c2ccccc2)=N1 | inactive
34 | O=C(OCc1ccccc1)[C@@H]1COC(c2ccc(F)c([N+](=O)[O-])c2)=N1 | inactive

system: Mycobacterium tuberculosis; test: Antimycobacterial activity against Mycobacterium tuberculosis; type: functional; conditions: not given

Row | Structure (SMILES) | MIC [µM]
35 | O=C(OCc1ccccc1)[C@@H]1COC(c2ccccc2OCc2ccccc2)=N1 | 7.7 (≈ 2.98 µg/mL)

system: Mus musculus; test: Toxicity in mouse assessed as change in body weight at 100 mg/kg, po qd for 5 days followed by 2 days rest and 200 mg/kg, po qd for 5 days; type: organism-based; conditions: in vivo

Row | Structure (SMILES) | Activity
36 | O=C(OCc1ccccc1)[C@@H]1COC(c2ccccc2OCc2ccccc2)=N1 | Non-toxic
37 | O=C(OCc1ccccc1)[C@@H]1COC(c2ccccc2)=N1 | Non-toxic
38 | O=C(OCc1ccccc1)[C@@H]1COC(c2ccc(F)c([N+](=O)[O-])c2)=N1 | Non-toxic

system: Mycobacterium tuberculosis; test: Antimycobacterial activity against Mycobacterium tuberculosis H37Rv ATCC 27294 incubated 10 days under anaerobic condition measured after 24 hrs recovery in air by luciferase based low oxygen recovery assay; type: functional; conditions: not given

Row | Structure (SMILES) | MIC [µM]
39 | O=C(OCc1ccccc1)[C@@H]1COC(c2ccccc2OCc2ccccc2)=N1 | 67.3 (≈ 26.1 µg/mL)
40 | O=C(OCc1ccccc1)[C@@H]1COC(c2ccccc2)=N1 | 63 (≈ 17.7 µg/mL)
41 | O=C(OCc1ccccc1)[C@@H]1COC(c2ccc(F)c([N+](=O)[O-])c2)=N1 | 26 (≈ 8.95 µg/mL)

system: Mycolicibacterium fortuitum; test: Antimycobacterial activity against Mycobacterium fortuitum B by agar diffusion assay; type: functional, organism-based; conditions: not given

Row | Structure (SMILES) | Activity
42 | O=C(OCc1ccccc1)[C@@H]1COC(c2ccccc2)=N1 | Active
43 | O=C(OCc1ccccc1)[C@@H]1COC(c2ccc(F)c([N+](=O)[O-])c2)=N1 | Active

system: Sporobolomyces salmonicolor; test: Antimicrobial activity against Sporobolomyces salmonicolor SBUG 549; type: functional, organism-based; conditions: not given

Row | Structure (SMILES) | Activity
44 | O=C(OCc1ccccc1)[C@@H]1COC(c2ccccc2)=N1 | inactive
45 | O=C(OCc1ccccc1)[C@@H]1COC(c2ccc(F)c([N+](=O)[O-])c2)=N1 | inactive

system: Mycobacterium tuberculosis; test: Antimycobacterial activity against Mycobacterium tuberculosis H37Rv; type: functional; conditions: not given

Row | Structure (SMILES) | MIC [µM]
46 | CCCCCCCCCCCCCCCC(=O)N(O)CCCC[C@H](NC(=O)[C@@H]1COC(c2ccccc2O)=N1)C(=O)OC[C@H](NC(=O)OC(C)(C)C)C(=O)N[C@H]1CCCCN(O)C1=O | < 0.2

system: Mycolicibacterium vaccae; test: Antimycobacterial activity against Mycobacterium vaccae 10670 by agar diffusion assay; type: functional, organism-based; conditions: not given

Row | Structure (SMILES) | Activity
47 | O=C(OCc1ccccc1)[C@@H]1COC(c2ccccc2)=N1 | inactive
48 | O=C(OCc1ccccc1)[C@@H]1COC(c2ccc(F)c([N+](=O)[O-])c2)=N1 | Active

system: Candida albicans; test: Antifungal activity against Candida albicans; type: functional, organism-based; conditions: not given

Row | Structure (SMILES) | Activity
49 | O=C(OCc1ccccc1)[C@@H]1COC(c2ccccc2)=N1 | inactive
50 | O=C(OCc1ccccc1)[C@@H]1COC(c2ccc(F)c([N+](=O)[O-])c2)=N1 | inactive

system: Mycolicibacterium fortuitum; test: Antimycobacterial activity against Mycobacterium fortuitum B; type: functional, organism-based; conditions: not given

Row | Structure (SMILES) | Activity
51 | O=C(OCc1ccccc1)[C@@H]1COC(c2ccccc2)=N1 | inactive
52 | O=C(OCc1ccccc1)[C@@H]1COC(c2ccc(F)c([N+](=O)[O-])c2)=N1 | inactive

system: Mycolicibacterium smegmatis; test: Antimycobacterial activity against Mycobacterium smegmatis SG 987; type: functional, organism-based; conditions: not given

Row | Structure (SMILES) | Activity
53 | O=C(OCc1ccccc1)[C@@H]1COC(c2ccccc2)=N1 | inactive
54 | O=C(OCc1ccccc1)[C@@H]1COC(c2ccc(F)c([N+](=O)[O-])c2)=N1 | inactive

system: not listed separately; test: Chemical stability in simulated gastric fluid assessed as compound remaining after 2 hrs by HPLC analysis; type: physicochemical; conditions: simulated gi fluid

Row | Structure (SMILES) | Stability [%]
55 | O=C(OCc1ccccc1)[C@@H]1COC(c2ccccc2OCc2ccccc2)=N1 | 1.4
56 | O=C(OCc1ccccc1)[C@@H]1COC(c2ccccc2)=N1 | 0.4
57 | O=C(OCc1ccccc1)[C@@H]1COC(c2ccc(F)c([N+](=O)[O-])c2)=N1 | 2.2

system: Mycolicibacterium smegmatis; test: Antimycobacterial activity against Mycobacterium smegmatis; type: functional; conditions: not given

Row | Structure (SMILES) | MIC [µM]
58 | CCCCCCCCCCCCCCCC(=O)N(O)CCCC[C@H](NC(=O)[C@@H]1COC(c2ccccc2O)=N1)C(=O)OC[C@H](NC(=O)OC(C)(C)C)C(=O)N[C@H]1CCCCN(O)C1=O | 0.2 (≈ 0.181 µg/mL)

system: Mycobacterium tuberculosis; test: Antimycobacterial activity against Mycobacterium tuberculosis Erdman infected in BALB/c mouse assessed as reduction of bacterial load at 200 mg/kg, po qd for 5 days per week administered 60 days after infection measured after 85 days post infection; type: functional, organism-based; design: dose 200 mg/kg; conditions: not given

Row | Structure (SMILES) | Activity
59 | CCCCCCCCCCCCCCCC(=O)N(O)CCCC[C@H](NC(=O)[C@@H]1COC(c2ccccc2O)=N1)C(=O)OC[C@H](NC(=O)OC(C)(C)C)C(=O)N[C@H]1CCCCN(O)C1=O | inactive
60 | O=C(OCc1ccccc1)[C@@H]1COC(c2ccccc2OCc2ccccc2)=N1 | inactive
61 | O=C(OCc1ccccc1)[C@@H]1COC(c2ccccc2)=N1 | inactive
62 | O=C(OCc1ccccc1)[C@@H]1COC(c2ccc(F)c([N+](=O)[O-])c2)=N1 | inactive

system: Proteus vulgaris; test: Antibacterial activity against Proteus vulgaris OX 19; type: functional, organism-based; conditions: not given

Row | Structure (SMILES) | Activity
63 | O=C(OCc1ccccc1)[C@@H]1COC(c2ccccc2)=N1 | inactive
64 | O=C(OCc1ccccc1)[C@@H]1COC(c2ccc(F)c([N+](=O)[O-])c2)=N1 | inactive

system: Mycobacterium avium; test: Antimycobacterial activity against Mycobacterium avium MAC 109; type: functional, organism-based; conditions: not given

Row | Structure (SMILES) | Activity
65 | O=C(OCc1ccccc1)[C@@H]1COC(c2ccccc2)=N1 | inactive
66 | O=C(OCc1ccccc1)[C@@H]1COC(c2ccc(F)c([N+](=O)[O-])c2)=N1 | inactive

system: Mycobacterium avium; test: Antimycobacterial activity against Mycobacterium avium MAC 116; type: functional, organism-based; conditions: not given

Row | Structure (SMILES) | Activity
67 | O=C(OCc1ccccc1)[C@@H]1COC(c2ccccc2)=N1 | inactive
68 | O=C(OCc1ccccc1)[C@@H]1COC(c2ccc(F)c([N+](=O)[O-])c2)=N1 | inactive

system: Mycobacterium tuberculosis; test: Antimycobacterial activity against Mycobacterium tuberculosis H37Rv ATCC 27294 in GAST medium after 1 week by microplate alamar blue assay; type: functional; conditions: H37Rv ATCC 27294, 168 h

Row | Structure (SMILES) | MIC [µM]
69 | O=C(OCc1ccccc1)[C@@H]1COC(c2ccccc2)=N1 | 4.42 (≈ 1.24 µg/mL)
70 | O=C(OCc1ccccc1)[C@@H]1COC(c2ccc(F)c([N+](=O)[O-])c2)=N1 | 0.95 (≈ 0.327 µg/mL)

system: Liver microsomes; test: Metabolic stability in Sprague-Dawley rat microsomes assessed as compound remaining after 15 mins by HPLC analysis; type: ADME, Microsome; conditions: 0.25 h

Row | Structure (SMILES) | Stability [%]
71 | O=C(OCc1ccccc1)[C@@H]1COC(c2ccccc2OCc2ccccc2)=N1 | 8.4
72 | O=C(OCc1ccccc1)[C@@H]1COC(c2ccccc2)=N1 | 5.7
73 | O=C(OCc1ccccc1)[C@@H]1COC(c2ccc(F)c([N+](=O)[O-])c2)=N1 | 13
